Data from US20100286183A1, “SPIROHYDANTOIN COMPOUNDS AND METHODS FOR THE MODULATION OF CHEMOKINE RECEPTOR ACTIVITY” (priority 2005, published 2010).
Where a name gives a salt, the structure may show the parent alone.

These compounds were tested on HIV-1Ba-L (assay: HIV-1 Replication in PM1 Cell Culture Assay). Conditions: Human immunodeficiency virus 1, 144 h; PM1 cell line infected with HIV-1Ba-L, 6 days, reverse transcriptase assay of supernatant; read-out: IC50 μM HIV-1 PM1.
Format: cell-based
Excerpt: C:HIV-1 Replication in PM1 Cell Culture Assay
Evaluation of the in vitro anti-HIV-1Ba-L activity in PM1 cell line: PM1 cell line which is a continuous CD4+ T-cell clone originally derived from a neoplastic T-cell line is used. PM1 is characterized by a unique susceptibility to a wide range of HIV-1 isolates, including primary and biologically pure macrophage-tropic isolates. Drugs are serially diluted (9 concentrations in duplicates) and added to wells of a flat bottom 96-well plate. PM1 cells are infected with HIV-1Ba-L at a multiplicity of infection of 0.5 for a period of 3 hours. Unbound viruses are removed by washing the cells two times through centrifugation followed by seeding the cells into a 96-well plate in the presence of the serially diluted test compounds with final concentrations ranging from 0.00256 to 5000 ηM. Thereafter, plates were incubated for a period of 6 days at 37° C. in a CO2 incubator. Thereafter, culture supernatants are collected at day 6 and stored at −80° C. for viral quantification. The amount of virus present in cell culture supernatants is quantified using a reverse transcriptase assay. The concentration causing 50% inhibition of viral replication (IC50) is calculated using Graph Pad Prism software.

Q: For `CC(C)(C)OC(=O)N1C[C@H](CN2CCC3(CC2)NC(=O)N(Cc2ccc(Br)cc2)C3=O)[C@@H](c2ccccc2)C1` [Compound 1, (3S,4S)-3-[3-(4-Bromo-benzyl)-2,4-dioxo-1,3,8-triaza-spiro[4.5]dec-8-ylmethyl]-4-phenyl-pyrrolidine-1-carboxylic acid tert-butyl ester], which IC50 is on record?
A: The IC50 was less than 1 µM.

Q: Which IC50 does the source give for `COc1ccc(CN2C(=O)NC3(CCN(C[C@H]4CN(C(=O)OC(C)(C)C)C[C@@H]4c4ccccc4)CC3)C2=O)cc1` [Compound 2, (3S,4S)-3-[3-(4-Methoxy-benzyl)-2,4-dioxo-1,3,8-triaza-spiro[4.5]dec-8-ylmethyl]-4-phenyl-pyrrolidine-1-carboxylic acid tert-butyl ester] here?
A: Its IC50 is less than 1 µM.

Q: `CC(C)(C)OC(=O)N1C[C@H](CN2CCC3(CC2)NC(=O)N(Cc2ccc(S(C)(=O)=O)cc2)C3=O)[C@@H](c2ccccc2)C1` [Compound 3, (3S,4S)-3-[3-(4-Methanesulfonyl-benzyl)-2,4-dioxo-1,3,8-triaza-spiro[4.5]dec-8-ylmethyl]-4-phenyl-pyrrolidine-1-carboxylic acid tert-butyl ester] was tested. Which IC50 did it give?
A: The IC50 was less than 1 µM.

Same assay, conditions: Human immunodeficiency virus 1, PM1, 144 h, read-out: IC50 μM HIV-1 PM1

Q: How did the IC50 turn out when `CCC(=O)N1C[C@H](CN2CCC3(CC2)NC(=O)N(Cc2ccc(S(C)(=O)=O)cc2)C3=O)[C@@H](c2ccccc2)C1` [Compound 15, 3-(4-Methanesulfonyl-benzyl)-8-((3S,4S)-4-phenyl-1-propionyl-pyrrolidin-3-ylmethyl)-1,3,8-triaza-spiro[4.5]decane-2,4-dione hydrochloride] was run?
A: Its IC50 is less than 1 µM.

Q: `CC1(C(=O)N2C[C@H](CN3CCC4(CC3)NC(=O)N(Cc3ccc(S(C)(=O)=O)cc3)C4=O)[C@@H](c3ccccc3)C2)CC1` [Compound 16, 3-(4-Methanesulfonyl-benzyl)-8-[(3S,4S)-1-(1-methyl-cyclopropanecarbonyl)-4-phenyl-pyrrolidin-3-ylmethyl]-1,3,8-triaza-spiro[4.5]decane-2,4-dione hydrochloride] was tested. Which IC50 did it give?
A: The IC50 was less than 1 µM.

Q: `CS(=O)(=O)c1ccc(CN2C(=O)NC3(CCN(C[C@H]4CN(C(=O)CC5CC5)C[C@@H]4c4ccccc4)CC3)C2=O)cc1` [Compound 17, 8-[(3S,4S)-1-(2-Cyclopropyl-acetyl)-4-phenyl-pyrrolidin-3-ylmethyl]-3-(4-methanesulfonyl-benzyl)-1,3,8-triaza-spiro[4.5]decane-2,4-dione hydrochloride] was tested. Which IC50 did it give?
A: The IC50 was less than 1 µM.

Q: How did the IC50 turn out when `CS(=O)(=O)c1ccc(CN2C(=O)NC3(CCN(C[C@H]4CN(C(=O)C5CCCC5)C[C@@H]4c4ccccc4)CC3)C2=O)cc1` [Compound 18, 8-((3S,4S)-1-Cyclopentanecarbonyl-4-phenyl-pyrrolidin-3-ylmethyl)-3-(4-methanesulfonyl-benzyl)-1,3,8-triaza-spiro[4.5]decane-2,4-dione hydrochloride] was run?
A: The IC50 was less than 1 µM.

Q: How did the IC50 turn out when `CS(=O)(=O)c1ccc(CN2C(=O)NC3(CCN(C[C@H]4CN(C(=O)C5CCC(F)(F)CC5)C[C@@H]4c4ccccc4)CC3)C2=O)cc1` [Compound 19, 8-[(3S,4S)-1-(4,4-Difluoro-cyclohexanecarbonyl)-4-phenyl-pyrrolidin-3-ylmethyl]-3-(4-methanesulfonyl-benzyl)-1,3,8-triaza-spiro[4.5]decane-2,4-dione hydrochloride] was run?
A: Its IC50 is less than 1 µM.

Q: For `CS(=O)(=O)c1ccc(CN2C(=O)NC3(CCN(C[C@H]4CN(C(=O)c5ccccc5F)C[C@@H]4c4ccccc4)CC3)C2=O)cc1` [Compound 20, 8-[(3S,4S)-1-(2-Fluoro-benzoyl)-4-phenyl-pyrrolidin-3-ylmethyl]-3-(4-methanesulfonyl-benzyl)-1,3,8-triaza-spiro[4.5]decane-2,4-dione hydrochloride], which IC50 is on record?
A: Its IC50 is less than 1 µM.

Q: How did the IC50 turn out when `CS(=O)(=O)c1ccc(CN2C(=O)NC3(CCN(C[C@H]4CN(C(=O)c5ccccc5Cl)C[C@@H]4c4ccccc4)CC3)C2=O)cc1` [Compound 21, 8-[(3S,4S)-1-(2-Chloro-benzoyl)-4-phenyl-pyrrolidin-3-ylmethyl]-3-(4-methanesulfonyl-benzyl)-1,3,8-triaza-spiro[4.5]decane-2,4-dione hydrochloride] was run?
A: The IC50 was less than 1 µM.

Q: For `CN(C)S(=O)(=O)c1ccc(CN2C(=O)NC3(CCN(C[C@H]4CN(C(=O)C5CCC(F)(F)CC5)C[C@@H]4c4ccccc4)CC3)C2=O)cc1` [Compound 22, 4-{8-[(3S,4S)-1-(4,4-Difluoro-cyclohexanecarbonyl)-4-phenyl-pyrrolidin-3-ylmethyl]-2,4-dioxo-1,3,8-triaza-spiro[4.5]dec-3-ylmethyl}-N,N-dimethyl-benzenesulfonamide hydrochloride], which IC50 is on record?
A: The IC50 was less than 1 µM.

Q: `CC(C)(C)CC(=O)N1C[C@H](CN2CCC3(CC2)NC(=O)N(Cc2ccc(S(C)(=O)=O)cc2)C3=O)[C@@H](c2ccccc2)C1` [Compound 23, 8-[(3S,4S)-1-(3,3-Dimethyl-butyryl)-4-phenyl-pyrrolidin-3-ylmethyl]-3-(4-methanesulfonyl-benzyl)-1,3,8-triaza-spiro[4.5]decane-2,4-dione hydrochloride] was tested. Which IC50 did it give?
A: The IC50 was less than 1 µM.

Q: `CCCN1C(=O)N(CC)C2(CCN(C[C@H]3CN(C(=O)CC(C)(C)C)C[C@@H]3c3ccccc3)CC2)C1=O` [Compound 24, 8-[(3S,4S)-1-(3,3-Dimethyl-butyryl)-4-phenyl-pyrrolidin-3-ylmethyl]-1-ethyl-3-propyl-1,3,8-triaza-spiro[4.5]decane-2,4-dione hydrochloride] was tested. Which IC50 did it give?
A: The IC50 was less than 1 µM.
